Measured values published in US5312812A, “Pharmaceutical compositions comprising novel oligopeptides exhibiting selective inhibiting effect upon the proliferation of hemopoietic cells” (Richter Gedeon Vegyeszeti Gyar Rt., priority 1990, dated 1994).
Where two headings read alike, the source gives them in different places. Where a SMILES comes first, the peptide text is derived from it. Where no end group is shown, it is not given here. [ ]: non-standard residue; d: D form. The star is where a group is joined. pGlu = O=C1CC[C@@H](C(=O)O)N1; Acm = CC(=O)NC*

How the values were obtained:
[1] = tested on: mouse bone marrow cells; type: cell-based
Experimental: For the long-term cultivation, cells isolated from mouse bone marrow were used in semi-solid agar culture. 1.5×10^5 femoral medulla cells obtained from 2-3 month old male C57B1 mice were suspended in 1 ml of "McCoy 5A" medium (product of Gibco), then the following were added: 20% by volume of horse blood-serum (product of Gibco), 16% by volume of L-cell CSF (colony stimulating factor prepared from the supernatant of […]; product of the Pharmacological Institute of the Medical University of Debrecen, Hungary) and agar-agar to 0.18% by weight. 100 μl of the semi-solid medium were cultivated in a Micropet capillary for 7 days in the above-described manner, then the colonies were counted under a Zeiss-Cytoplast stereomicroscope of 40-times magnification. The results are given as the percentage reduction of the numbers of colonies compared to the untreated control. The tests were carried out in the presence of 0.25 mmole/l mercapto ethanol (+ME) and without mercapto ethanol (-ME).

[2] = tested on: cell proliferation; conditions: cited from earlier work
[3] = tested on: mouse; conditions: two mouse species; dose of 9.1 mg/animal or 1 mg/animal; cited from earlier work
[4] = tested on: human bone marrow cells; conditions: 10^-15 to 10^-4 mole/l, 7-day in vitro treatment; cited from earlier work
[5] = tested on: mouse bone marrow cells; conditions: 10^-15 to 10^-4 mole/l, 7-day in vitro treatment; cited from earlier work

For `CC(=O)NCSC[C@H](NC(=O)[C@H](CC(=O)O)NC(=O)[C@H](CCC(=O)O)NC(=O)[C@@H]1CCC(=O)N1)C(=O)N[C@@H](CCCCN)C(=O)O` [SEQ I.D. No: 1, Xaa Glu Asp Cys Lys] ([pGlu]EDC(Acm)K-OH), the “percentage reduction of the numbers of colonies compared to the untreated control” value (“percentage reduction” below) ([1]; 1e-12 mole/l) was 70%, the “percentage reduction” value ([1]; 1e-8 mole/l) was 77% and the “percentage reduction” value ([1]; 1e-4 mole/l) was 81%.
For “Xaa Glu Asp Met Lys ([pGlu]EDMK) [SEQ I.D. No: 4, Met analogue of the pentapeptide, Xaa is pyroglutamic acid]”, the “effect on cell proliferation” value [2] is given as “ineffectiveness”.
In the case of `NCCCC[C@H](NC(=O)[C@H](CS)NC(=O)[C@H](CC(=O)O)NC(=O)[C@H](CCC(=O)O)NC(=O)[C@@H]1CCC(=O)N1)C(=O)O` [SEQ I.D. No: 5, Xaa Glu Asp Cys Lys] (HELM PEPTIDE1{[Glp].E.D.C.K}$$$$V2.0), the toxicity to mice [3] is listed as “not toxic”, the “toxicity to bone marrow cells” value [4] is listed as “not toxic” and the “toxicity to bone marrow cells” value [5] is listed as “not toxic”.
In the case of `CC(=O)NCSC[C@H](NC(=O)[C@H](CC(=O)O)NC(=O)[C@@H](N)CCC(=O)O)C(=O)N[C@@H](CCCCN)C(=O)O` [SEQ I.D. No: 2, Glu Asp Cys Lys] (H-EDC(Acm)K-OH), the “percentage reduction” value [1] is reported as 29%, the “percentage reduction” value ([1]; 1e-12 mole/l) is reported as 36% and the “percentage reduction” value ([1]; 1e-10 mole/l) is reported as 52%. For the same compound, the “percentage reduction” value ([1]; 1e-9 mole/l) was 26%, the “percentage reduction” value ([1]; 1e-8 mole/l) was 64% and the “percentage reduction” value ([1]; 1e-6 mole/l) was 66%.
In the case of “Xaa Glu Asp Cys Lys Xaa Glu Asp Cys Lys ([pGlu]EDCK[pGlu]EDCK; not fully specified; printed as Xaa Glu Asp Cys Lys Xaa Glu Asp Cys Lys; cysteine pairing not given here) [SEQ I.D. No: 3, dimer molecule of the hemoregulating pentapeptide, Xaa is pyroglutamic acid]”, the “effect on cell proliferation” value [2] is listed as “cell proliferation stimulating effect”.
